Assay results reported in patent publication EP4817611A1, “PHARMACEUTICAL COMPOSITION” (EA Pharma Co., Ltd., priority 2023, dated 2025).

Legend:
[1] = One-month stability test in sealed glass vial under three storage conditions; decomposition product 1 by HPLC; format: physicochemical; conditions: Compound (2) HCl 62.5 mg + acidic substance 62.5 mg
Protocol: When the hydrochloride of the compound represented by the formula (2) (hereinafter referred to as "Compound (2) HCl") is decomposed, the following decomposition products 1 and 2 are produced. [drawing 9]
The amount of the decomposition product 1 produced was measured over time by HPLC to evaluate the stability of the pharmaceutical composition. The HPLC analysis conditions are as follows. When airtight conditions were employed in the stability test, aluminum packaging was used.
• Detector: UV absorption photometer (measurement wavelength: 256 nm) • Column: InertSustain AQ-C18 HP 3 µm, 3.0 × 150 mm (reverse-phase C18 column) • Column temperature: a constant temperature around 25°C • Mobile phase A: 50 mmol/L ammonium formate buffer solution (pH: 4) • Mobile phase B: 50 mmol/L ammonium formate buffer solution (pH: 4) : acetonitrile = 1:4 • Flow rate: 1.0 ml/min
• Time: 0 → 20 • Mobile phase A (%): 95 → 0 • Mobile phase B (%): 5 → 100
The formulation in Table 5-1 (the types of acidic substances are listed in Table 5-2) was mixed in a mortar to prepare a pharmaceutical composition, which was then sealed in a glass vial, and a one-month stability test was performed under three storage conditions (airtight conditions at 4°C, airtight conditions at 60°C, and open conditions at 60°C). As a reference example, a stability test was also performed on the active ingredient alone (without an acidic substance).

[2] = recorded in the Chemical Book; cited from earlier work

SMILES | Content of decomposition product 1 (%) (4°C, airtight) ([1]; 4°C, airtight, glass vial) | Content of decomposition product 1 (%) (60°C, airtight) ([1]; 60°C, airtight, glass vial) | Content of decomposition product 1 (%) (60°C, open, 75% RH) ([1]; 60°C, open, 75% RH) | pKa [2]
CC(C)(Cc1ccc(C(=O)Oc2ccc(C(=N)N)cc2F)s1)C(=O)O [Reference example] | 0.03 | 0.05 | 0.10 | –
N[C@@H](CC(=O)O)C(=O)O [aspartic acid] | – | – | – | 1.99
